{"source": "PubChem BioAssay (NCI)", "assay_in_all_cases": "inhibition of tumour cell growth, NCI panel, 384-well format", "key": {"786-0 renal": {"system": "786-0 renal"}, "A498 renal": {"system": "A498 renal"}, "A549 NSCLC": {"system": "A549 NSCLC"}, "ACHN renal": {"system": "ACHN renal"}, "BT-549 breast": {"system": "BT-549 breast"}, "CAKI-1 renal": {"system": "CAKI-1 renal"}, "COLO 205 colon": {"system": "COLO 205 colon"}, "DU-145 prostate": {"system": "DU-145 prostate"}, "EKVX NSCLC": {"system": "EKVX NSCLC"}, "HCC-2998 colon": {"system": "HCC-2998 colon"}, "HCT-116 colon": {"system": "HCT-116 colon"}, "HCT-15 colon": {"system": "HCT-15 colon"}, "HL-60(TB) leukemia": {"system": "HL-60(TB) leukemia"}, "HOP-62 NSCLC": {"system": "HOP-62 NSCLC"}, "HOP-92 NSCLC": {"system": "HOP-92 NSCLC"}, "HT29 colon": {"system": "HT29 colon"}, "IGROV1 ovarian": {"system": "IGROV1 ovarian"}, "LOX IMVI melanoma": {"system": "LOX IMVI melanoma"}, "M14 melanoma": {"system": "M14 melanoma"}, "MALME-3M melanoma": {"system": "MALME-3M melanoma"}, "MCF7 breast": {"system": "MCF7 breast"}, "MDA-MB-231 breast": {"system": "MDA-MB-231 breast"}, "MOLT-4 leukemia": {"system": "MOLT-4 leukemia"}, "NCI-H226 lung": {"system": "NCI-H226 lung"}, "NCI-H23 lung": {"system": "NCI-H23 lung"}, "NCI-H322M lung": {"system": "NCI-H322M lung"}, "NCI-H460 NSCLC": {"system": "NCI-H460 NSCLC"}, "NCI/ADR-RES ovarian": {"system": "NCI/ADR-RES ovarian"}, "OVCAR-3 ovarian": {"system": "OVCAR-3 ovarian"}, "OVCAR-5 ovarian": {"system": "OVCAR-5 ovarian"}, "OVCAR-8 ovarian": {"system": "OVCAR-8 ovarian"}, "PC-3 prostate": {"system": "PC-3 prostate"}, "RXF 393 renal": {"system": "RXF 393 renal"}, "SF-268 CNS": {"system": "SF-268 CNS"}, "SF-295 CNS": {"system": "SF-295 CNS"}, "SF-539 CNS": {"system": "SF-539 CNS"}, "SK-MEL-2 melanoma": {"system": "SK-MEL-2 melanoma"}, "SK-MEL-28 melanoma": {"system": "SK-MEL-28 melanoma"}, "SK-MEL-5 melanoma": {"system": "SK-MEL-5 melanoma"}, "SK-OV-3 ovarian": {"system": "SK-OV-3 ovarian"}, "SN12C renal": {"system": "SN12C renal"}, "SNB-19 CNS": {"system": "SNB-19 CNS"}, "T-47D breast": {"system": "T-47D breast"}, "U251 glioblastoma": {"system": "U251 glioblastoma"}, "UACC-257 melanoma": {"system": "UACC-257 melanoma"}, "UACC-62 melanoma": {"system": "UACC-62 melanoma"}, "UO-31 renal": {"system": "UO-31 renal"}}, "note": "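GI50 is the concentration that inhibits growth by half. The concentration for full growth arrest is given as TGI.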"}
{"compound": "CCN(CC)CCNC(=O)c1c(C)[nH]c(/C=C2\\C(=O)Nc3ccc(F)cc32)c1C", "values": [{"measurement": "GI50", "setting": "786-0 renal", "value": 1.62, "unit": "µM"}, {"measurement": "TGI", "setting": "786-0 renal", "value": 3.11, "unit": "µM"}, {"measurement": "GI50", "setting": "A498 renal", "value": 1.54, "unit": "µM"}, {"measurement": "TGI", "setting": "A498 renal", "value": 3.14, "unit": "µM"}, {"measurement": "GI50", "setting": "A549 NSCLC", "value": 2.58, "unit": "µM"}, {"measurement": "TGI", "setting": "A549 NSCLC", "value": 6.97, "unit": "µM"}, {"measurement": "GI50", "setting": "ACHN renal", "value": 1.3, "unit": "µM"}, {"measurement": "TGI", "setting": "ACHN renal", "value": 3.06, "unit": "µM"}, {"measurement": "GI50", "setting": "BT-549 breast", "value": 1.58, "unit": "µM"}, {"measurement": "TGI", "setting": "BT-549 breast", "value": 2.98, "unit": "µM"}, {"measurement": "GI50", "setting": "CAKI-1 renal", "value": 0.748, "unit": "µM"}, {"measurement": "TGI", "setting": "CAKI-1 renal", "value": 2.06, "unit": "µM"}, {"measurement": "GI50", "setting": "COLO 205 colon", "value": 3.18, "unit": "µM"}, {"measurement": "TGI", "setting": "COLO 205 colon", "value": 7.89, "unit": "µM"}, {"measurement": "GI50", "setting": "DU-145 prostate", "value": 2.54, "unit": "µM"}, {"measurement": "TGI", "setting": "DU-145 prostate", "value": 11.9, "unit": "µM"}, {"measurement": "GI50", "setting": "EKVX NSCLC", "value": 3.12, "unit": "µM"}, {"measurement": "TGI", "setting": "EKVX NSCLC", "value": 9.47, "unit": "µM"}, {"measurement": "GI50", "setting": "HCC-2998 colon", "value": 1.71, "unit": "µM"}, {"measurement": "TGI", "setting": "HCC-2998 colon", "value": 3.32, "unit": "µM"}, {"measurement": "GI50", "setting": "HCT-116 colon", "value": 1.28, "unit": "µM"}, {"measurement": "TGI", "setting": "HCT-116 colon", "value": 2.62, "unit": "µM"}, {"measurement": "GI50", "setting": "HCT-15 colon", "value": 1.19, "unit": "µM"}, {"measurement": "TGI", "setting": "HCT-15 colon", "value": 3.6, "unit": "µM"}, {"measurement": "GI50", "setting": "HL-60(TB) leukemia", "value": 0.892, "unit": "µM"}, {"measurement": "TGI", "setting": "HL-60(TB) leukemia", "value": 2.13, "unit": "µM"}, {"measurement": "GI50", "setting": "HOP-62 NSCLC", "value": 2.78, "unit": "µM"}, {"measurement": "TGI", "setting": "HOP-62 NSCLC", "value": 8.28, "unit": "µM"}, {"measurement": "GI50", "setting": "HOP-92 NSCLC", "value": 1.62, "unit": "µM"}, {"measurement": "TGI", "setting": "HOP-92 NSCLC", "value": 4.86, "unit": "µM"}, {"measurement": "GI50", "setting": "HT29 colon", "value": 1.48, "unit": "µM"}, {"measurement": "TGI", "setting": "HT29 colon", "value": 2.85, "unit": "µM"}, {"measurement": "GI50", "setting": "IGROV1 ovarian", "value": 1.14, "unit": "µM"}, {"measurement": "TGI", "setting": "IGROV1 ovarian", "value": 5.97, "unit": "µM"}, {"measurement": "GI50", "setting": "LOX IMVI melanoma", "value": 1.39, "unit": "µM"}, {"measurement": "TGI", "setting": "LOX IMVI melanoma", "value": 2.71, "unit": "µM"}, {"measurement": "GI50", "setting": "M14 melanoma", "value": 0.911, "unit": "µM"}, {"measurement": "TGI", "setting": "M14 melanoma", "value": 2.15, "unit": "µM"}, {"measurement": "GI50", "setting": "MALME-3M melanoma", "value": 1.17, "unit": "µM"}, {"measurement": "TGI", "setting": "MALME-3M melanoma", "value": 2.41, "unit": "µM"}, {"measurement": "GI50", "setting": "MCF7 breast", "value": 1.36, "unit": "µM"}, {"measurement": "TGI", "setting": "MCF7 breast", "value": 3.8, "unit": "µM"}, {"measurement": "GI50", "setting": "MDA-MB-231 breast", "value": 2.22, "unit": "µM"}, {"measurement": "TGI", "setting": "MDA-MB-231 breast", "value": 5.5, "unit": "µM"}, {"measurement": "GI50", "setting": "MOLT-4 leukemia", "value": 1.03, "unit": "µM"}, {"measurement": "TGI", "setting": "MOLT-4 leukemia", "value": 2.28, "unit": "µM"}, {"measurement": "GI50", "setting": "NCI-H226 lung", "value": 1.61, "unit": "µM"}, {"measurement": "TGI", "setting": "NCI-H226 lung", "value": 4.48, "unit": "µM"}, {"measurement": "GI50", "setting": "NCI-H23 lung", "value": 1.91, "unit": "µM"}, {"measurement": "TGI", "setting": "NCI-H23 lung", "value": 4.64, "unit": "µM"}, {"measurement": "GI50", "setting": "NCI-H322M lung", "value": 2.41, "unit": "µM"}, {"measurement": "TGI", "setting": "NCI-H322M lung", "value": 8.96, "unit": "µM"}, {"measurement": "GI50", "setting": "NCI-H460 NSCLC", "value": 1.79, "unit": "µM"}, {"measurement": "TGI", "setting": "NCI-H460 NSCLC", "value": 5.73, "unit": "µM"}, {"measurement": "GI50", "setting": "NCI/ADR-RES ovarian", "value": 2.56, "unit": "µM"}, {"measurement": "TGI", "setting": "NCI/ADR-RES ovarian", "value": 6.16, "unit": "µM"}, {"measurement": "GI50", "setting": "OVCAR-3 ovarian", "value": 1.78, "unit": "µM"}, {"measurement": "TGI", "setting": "OVCAR-3 ovarian", "value": 3.31, "unit": "µM"}, {"measurement": "GI50", "setting": "OVCAR-5 ovarian", "value": 2.67, "unit": "µM"}, {"measurement": "TGI", "setting": "OVCAR-5 ovarian", "value": 11.2, "unit": "µM"}, {"measurement": "GI50", "setting": "OVCAR-8 ovarian", "value": 2.35, "unit": "µM"}, {"measurement": "TGI", "setting": "OVCAR-8 ovarian", "value": 6.18, "unit": "µM"}, {"measurement": "GI50", "setting": "PC-3 prostate", "value": 2.27, "unit": "µM"}, {"measurement": "TGI", "setting": "PC-3 prostate", "value": 7.54, "unit": "µM"}, {"measurement": "GI50", "setting": "RXF 393 renal", "value": 1.88, "unit": "µM"}, {"measurement": "TGI", "setting": "RXF 393 renal", "value": 3.53, "unit": "µM"}, {"measurement": "GI50", "setting": "SF-268 CNS", "value": 4.23, "unit": "µM"}, {"measurement": "TGI", "setting": "SF-268 CNS", "value": 13.1, "unit": "µM"}, {"measurement": "GI50", "setting": "SF-295 CNS", "value": 5.25, "unit": "µM"}, {"measurement": "TGI", "setting": "SF-295 CNS", "value": 9.62, "unit": "µM"}, {"measurement": "GI50", "setting": "SF-539 CNS", "value": 1.28, "unit": "µM"}, {"measurement": "TGI", "setting": "SF-539 CNS", "value": 2.61, "unit": "µM"}, {"measurement": "GI50", "setting": "SK-MEL-2 melanoma", "value": 1.29, "unit": "µM"}, {"measurement": "TGI", "setting": "SK-MEL-2 melanoma", "value": 2.57, "unit": "µM"}, {"measurement": "GI50", "setting": "SK-MEL-28 melanoma", "value": 1.66, "unit": "µM"}, {"measurement": "TGI", "setting": "SK-MEL-28 melanoma", "value": 3.13, "unit": "µM"}, {"measurement": "GI50", "setting": "SK-MEL-5 melanoma", "value": 1.24, "unit": "µM"}, {"measurement": "TGI", "setting": "SK-MEL-5 melanoma", "value": 2.5, "unit": "µM"}, {"measurement": "GI50", "setting": "SK-OV-3 ovarian", "value": 1.04, "unit": "µM"}, {"measurement": "TGI", "setting": "SK-OV-3 ovarian", "value": 5.7, "unit": "µM"}, {"measurement": "GI50", "setting": "SN12C renal", "value": 0.931, "unit": "µM"}, {"measurement": "TGI", "setting": "SN12C renal", "value": 10.4, "unit": "µM"}, {"measurement": "GI50", "setting": "SNB-19 CNS", "value": 6.08, "unit": "µM"}, {"measurement": "TGI", "setting": "SNB-19 CNS", "value": 13.7, "unit": "µM"}, {"measurement": "GI50", "setting": "T-47D breast", "value": 4.24, "unit": "µM"}, {"measurement": "TGI", "setting": "T-47D breast", "value": 8.33, "unit": "µM"}, {"measurement": "GI50", "setting": "U251 glioblastoma", "value": 2.09, "unit": "µM"}, {"measurement": "TGI", "setting": "U251 glioblastoma", "value": 5.09, "unit": "µM"}, {"measurement": "GI50", "setting": "UACC-257 melanoma", "value": 1.71, "unit": "µM"}, {"measurement": "TGI", "setting": "UACC-257 melanoma", "value": 3.1, "unit": "µM"}, {"measurement": "GI50", "setting": "UACC-62 melanoma", "value": 1.8, "unit": "µM"}, {"measurement": "TGI", "setting": "UACC-62 melanoma", "value": 4.46, "unit": "µM"}, {"measurement": "GI50", "setting": "UO-31 renal", "value": 2.17, "unit": "µM"}, {"measurement": "TGI", "setting": "UO-31 renal", "value": 6.36, "unit": "µM"}]}
